Source: patent publication US9695155B2, “Herbicidal substituted pyrimidinyloxy benzene compounds” (E. I. DU PONT DE NEMOURS AND COMPANY, priority 2013, dated 2017)

Key:
barnyardgrass [1] = assay: Test B flooded paddy test; assay type: in vivo, Echinochloa crus-galli; conditions: Flood, 250 g ai/ha; 0 to 100 scale where 0 is no effect and 100 is complete control
In short: (§1)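 Evaluation is visual, against untreated controls, 13 to 15 days after treatment. Before treatment, plants reached the 2-leaf stage; pots were then flooded 3 cm deep, compound was added to the water, and that level was maintained. Ratings run 0 to 100, with 100 meaning complete control.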

large (Lg) crabgrass [2] = assay: Test A postemergence; assay type: in vivo, Digitaria sanguinalis
In short: (§2)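 Visual injury scored 0–100 (100 = complete control) against untreated controls about 10 days after treatment in a greenhouse. Test chemicals, formulated with surfactant in non-phytotoxic solvent, were sprayed on soil preemergence or on 2-10 cm, one- to two-leaf plants postemergence.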

wheat [3] = assay: Test A preemergence; assay type: in vivo, Triticum aestivum; conditions: for Wheat plant response rating: 500 g ai/ha
In short: as §2

sedge, umbrella = assay: Test B flooded paddy test; assay type: in vivo, Cyperus difformis; conditions: Flood, 250 g ai/ha; 0 to 100 scale where 0 is no effect and 100 is complete control
In short: as §1

wheat [4] = assay: Test A postemergence; assay type: in vivo, Triticum aestivum
In short: as §2

velvetleaf [5] = assay: Test A preemergence; assay type: in vivo, Abutilon theophrasti; conditions: for Velvetleaf plant response rating: 500 g ai/ha
In short: as §2

morningglory [6] = assay: Test A postemergence; assay type: in vivo, Ipomoea spp.
In short: as §2

giant foxtail [7] = assay: Test A postemergence; assay type: in vivo, Setaria faberii
In short: as §2

pigweed [8] = assay: Test A preemergence; assay type: in vivo, Amaranthus retroflexus; conditions: for Pigweed plant response rating: 500 g ai/ha
In short: as §2

large (Lg) crabgrass [9] = assay: Test A preemergence; assay type: in vivo, Digitaria sanguinalis; conditions: for Crabgrass, Large plant response rating: 500 g ai/ha
In short: as §2

pigweed [10] = assay: Test A postemergence; assay type: in vivo, Amaranthus retroflexus
In short: as §2

barnyardgrass [11] = assay: Test A postemergence; assay type: in vivo, Echinochloa crus-galli
In short: as §2

morningglory [12] = assay: Test A preemergence; assay type: in vivo, Ipomoea spp.; conditions: for Morningglory plant response rating: 500 g ai/ha
In short: as §2

giant foxtail [13] = assay: Test A preemergence; assay type: in vivo, Setaria faberii; conditions: for Foxtail, Giant plant response rating: 500 g ai/ha
In short: as §2

corn [14] = assay: Test A preemergence; assay type: in vivo, Zea mays; conditions: for Corn plant response rating: 500 g ai/ha
In short: as §2

barnyardgrass [15] = assay: Test A preemergence; assay type: in vivo, Echinochloa crus-galli; conditions: for Barnyardgrass plant response rating: 500 g ai/ha
In short: as §2

rice = assay: Test B flooded paddy test; assay type: in vivo, Oryza sativa; conditions: Flood, 250 g ai/ha; 0 to 100 scale where 0 is no effect and 100 is complete control
In short: as §1

corn [16] = assay: Test A postemergence; assay type: in vivo, Zea mays
In short: as §2

velvetleaf [17] = assay: Test A postemergence; assay type: in vivo, Abutilon theophrasti
In short: as §2

Heteranthera limosa = assay: Test B flooded paddy test; assay type: in vivo; conditions: Flood, 250 g ai/ha; 0 to 100 scale where 0 is no effect and 100 is complete control
In short: as §1

[18] = 125 g ai/ha, 0 to 100 scale, 0 no effect, 100 complete control
[19] = 500 g ai/ha, 0 to 100 scale where 0 is no effect and 100 is complete control
[20] = 0 to 100 scale where 0 is no effect and 100 is complete control
[21] = 125 g ai/ha, 0 to 100 scale where 0 is no effect and 100 is complete control
[22] = 500 g ai/ha, 0 to 100 scale, 0 no effect, 100 complete control
[23] = 0 to 100 scale, 0 no effect, 100 complete control, approx. 10 days

## N#Cc1cccc(Oc2ncc(Cl)cn2)c1-n1cc([N+](=O)[O-])cn1 [Compound 304]
Barnyardgrass [1]
  Plant response rating, Barnyardgrass: 0
Large (Lg) crabgrass [2]; [18]
  Plant response rating, Crabgrass, Large: 0
Large (Lg) crabgrass [2]; [19]
  Plant response rating, Crabgrass, Large: 0
Wheat [3]; 125 g ai/ha
  Wheat plant response rating (0 to 100 scale): 0
Wheat [3]; [20]
  Wheat plant response rating: 0
sedge, umbrella
  Plant response rating, Sedge, Umbrella: 0
Wheat [4]; [18]
  Plant response rating, Wheat: 0
Wheat [4]; [19]
  Plant response rating, Wheat: 0
Velvetleaf [5]; 125 g ai/ha
  Velvetleaf plant response rating (0 to 100 scale): 0
Velvetleaf [5]; [20]
  Velvetleaf plant response rating: 0
Morningglory [6]; [18]
  Plant response rating, Morningglory: 0
Morningglory [6]; [19]
  Plant response rating, Morningglory: 0
Giant foxtail [7]; [18]
  Plant response rating, Foxtail, Giant: 0
Giant foxtail [7]; [19]
  Plant response rating, Foxtail, Giant: 0
Pigweed [8]; 125 g ai/ha
  Pigweed plant response rating (0 to 100 scale): 0
Pigweed [8]; [20]
  Pigweed plant response rating: 0
Large (Lg) crabgrass [9]; 125 g ai/ha
  Crabgrass, Large plant response rating (0 to 100 scale): 0
Large (Lg) crabgrass [9]; [20]
  Crabgrass, Large plant response rating: 10
Pigweed [10]; [18]
  Plant response rating, Pigweed: 30
Pigweed [10]; [19]
  Plant response rating, Pigweed: 50
Barnyardgrass [11]; [18]
  Plant response rating, Barnyardgrass: 0
Barnyardgrass [11]; [19]
  Plant response rating, Barnyardgrass: 0
Morningglory [12]; 125 g ai/ha
  Morningglory plant response rating (0 to 100 scale): 0
Morningglory [12]; [20]
  Morningglory plant response rating: 0
Giant foxtail [13]; 125 g ai/ha
  Foxtail, Giant plant response rating (0 to 100 scale): 0
Giant foxtail [13]; [20]
  Foxtail, Giant plant response rating: 0
Corn [14]; 125 g ai/ha
  Corn plant response rating (0 to 100 scale): 0
Corn [14]; [20]
  Corn plant response rating: 0
Barnyardgrass [15]; 125 g ai/ha
  Barnyardgrass plant response rating (0 to 100 scale, 0 is no effect, 100 is complete control): 0
Barnyardgrass [15]; [20]
  Barnyardgrass plant response rating: 0
rice
  Plant response rating, Rice: 0
Corn [16]; [18]
  Plant response rating, Corn: 0
Corn [16]; [19]
  Plant response rating, Corn: 0
Velvetleaf [17]; [18]
  Plant response rating, Velvetleaf: 0
Velvetleaf [17]; [19]
  Plant response rating, Velvetleaf: 0
Heteranthera limosa
  Plant response rating, Ducksalad: 0

## Clc1cnc(Oc2cccc(-c3ccccc3)c2-n2cc(Br)cn2)nc1 [Compound 195]
Barnyardgrass [1]
  Plant response rating, Barnyardgrass: 0
Large (Lg) crabgrass [2]; [21]
  Crabgrass, Large plant response rating: 40
Large (Lg) crabgrass [2]; [19]
  Plant response rating, Crabgrass, Large: 60
Wheat [3]; 125 g ai/ha
  Wheat plant response rating (0 to 100 scale): 0
Wheat [3]; [20]
  Wheat plant response rating: 0
sedge, umbrella
  Plant response rating, Sedge, Umbrella: 30
Wheat [4]; [21]
  Wheat plant response rating: 0
Wheat [4]; [19]
  Plant response rating, Wheat: 0
Velvetleaf [5]; 125 g ai/ha
  Velvetleaf plant response rating (0 to 100 scale): 0
Velvetleaf [5]; [20]
  Velvetleaf plant response rating: 20
Morningglory [6]; [21]
  Morningglory plant response rating: 30
Morningglory [6]; [19]
  Plant response rating, Morningglory: 70
Giant foxtail [7]; [21]
  Foxtail, Giant plant response rating: 10
Giant foxtail [7]; [19]
  Plant response rating, Foxtail, Giant: 50
Pigweed [8]; 125 g ai/ha
  Pigweed plant response rating (0 to 100 scale): 0
Pigweed [8]; [20]
  Pigweed plant response rating: 40
Large (Lg) crabgrass [9]; [20]
  Crabgrass, Large plant response rating: 70
Pigweed [10]; [21]
  Pigweed plant response rating: 60
Pigweed [10]; [19]
  Plant response rating, Pigweed: 80
Barnyardgrass [11]; [21]
  Barnyardgrass plant response rating: 0
Barnyardgrass [11]; [19]
  Plant response rating, Barnyardgrass: 20
Morningglory [12]; 125 g ai/ha
  Morningglory plant response rating (0 to 100 scale): 0
Morningglory [12]; [20]
  Morningglory plant response rating: 10
Giant foxtail [13]; 125 g ai/ha
  Foxtail, Giant plant response rating (0 to 100 scale): 10
Giant foxtail [13]; [20]
  Foxtail, Giant plant response rating: 80
Corn [14]; 125 g ai/ha
  Corn plant response rating (0 to 100 scale): 0
Corn [14]; [20]
  Corn plant response rating: 0
Barnyardgrass [15]; 125 g ai/ha
  Barnyardgrass plant response rating (0 to 100 scale, 0 is no effect, 100 is complete control): 0
Barnyardgrass [15]; [20]
  Barnyardgrass plant response rating: 0
rice
  Plant response rating, Rice: 20
Corn [16]; [21]
  Corn plant response rating: 0
Corn [16]; [19]
  Plant response rating, Corn: 20
Velvetleaf [17]; [21]
  Velvetleaf plant response rating: 50
Velvetleaf [17]; [19]
  Plant response rating, Velvetleaf: 100
Heteranthera limosa
  Plant response rating, Ducksalad: 20

## FC(F)(F)c1cccc(Oc2ncc(Cl)cn2)c1-n1cc(Br)cn1 [Compound 64]
Barnyardgrass [1]
  Plant response rating, Barnyardgrass: 0
Large (Lg) crabgrass [2]; [21]
  Plant response rating, Crabgrass, Large: 80
Large (Lg) crabgrass [2]; [22]
  Plant response rating, Crabgrass, Large: 100
Wheat [3]; [21]
  Plant response rating, Wheat: 0
Wheat [3]; [23]
  Wheat plant response rating: 30
sedge, umbrella
  Plant response rating, Sedge, Umbrella: 80
Wheat [4]; [21]
  Plant response rating, Wheat: 0
Wheat [4]; [19]
  Plant response rating, Wheat: 30
Velvetleaf [5]; [21]
  Plant response rating, Velvetleaf: 40
Velvetleaf [5]; [23]
  Velvetleaf plant response rating: 90
Morningglory [6]; [21]
  Plant response rating, Morningglory: 60
Morningglory [6]; [19]
  Plant response rating, Morningglory: 80
Giant foxtail [7]; [21]
  Plant response rating, Foxtail, Giant: 80
Giant foxtail [7]; [19]
  Plant response rating, Foxtail, Giant: 100
Pigweed [8]; [21]
  Plant response rating, Pigweed: 90
Pigweed [8]; [23]
  Pigweed plant response rating: 100
Large (Lg) crabgrass [9]; [21]
  Plant response rating, Crabgrass, Large: 90
Large (Lg) crabgrass [9]; [23]
  Crabgrass, Large plant response rating: 90
Pigweed [10]; [21]
  Plant response rating, Pigweed: 100
Pigweed [10]; [19]
  Plant response rating, Pigweed: 100
Barnyardgrass [11]; [21]
  Plant response rating, Barnyardgrass: 60
Barnyardgrass [11]; [22]
  Plant response rating, Barnyardgrass: 100
Morningglory [12]; [21]
  Plant response rating, Morningglory: 0
Morningglory [12]; [23]
  Morningglory plant response rating: 20
Giant foxtail [13]; [21]
  Plant response rating, Foxtail, Giant: 90
Giant foxtail [13]; [23]
  Foxtail, Giant plant response rating: 90
Corn [14]; [21]
  Plant response rating, Corn: 0
Corn [14]; [23]
  Corn plant response rating: 70
Barnyardgrass [15]; [21]
  Plant response rating, Barnyardgrass: 60
Barnyardgrass [15]; [23]
  Barnyardgrass plant response rating: 100
rice
  Plant response rating, Rice: 0
Corn [16]; [21]
  Plant response rating, Corn: 30
Corn [16]; [22]
  Plant response rating, Corn: 90
Velvetleaf [17]; [21]
  Plant response rating, Velvetleaf: 100
Velvetleaf [17]; [19]
  Plant response rating, Velvetleaf: 100
Heteranthera limosa
  Plant response rating, Ducksalad: 70
